# Laboratory results taken from PMC9919699, “A Comprehensive Approach to Derivatization: Elemental Composition, Biochemical, and In Silico Studies of Metformin Derivatives Containing Copper and Zinc Complexes” (Molecules, 2023).
# Where two headings read alike, the source gives them in different places.
# How the values were obtained:
# [1] = tested on: α-glucosidase; experiment: α-glucosidase enzyme inhibition assay (starch substrate, anthrone reagent, 640 nm); format: biochemical
# Procedure: The α-glucosidase-inhibitory activity of all derivatives of metformin was tested using the method previously described. Three test tubes were marked as test (T), blank (B), and control (C). Then, 200 µL of substrate (starch) and enzyme (α-glucosidase) was added to test tubes T and C. The contents were mixed well, and then the test tubes were incubated at 37 °C for 30 min. After incubation, trichloroacetic acid was added to all test tubes, which were then centrifuged for 10 min. Free glucose was available after the reaction with anthrone reagent (1.5 mL). The contents in the test tubes were boiled for 15 min, and the absorbance was read at a wavelength at 640 nm. The percentage inhibition was calculated using the following formula:Percentage inhibition = OD of control − OD of test tube/OD of control × 100.
# [2] = tested on: α-amylase; experiment: α-amylase enzyme inhibition assay (starch, dinitro-salicylic acid, 540 nm); format: biochemical
# Procedure: All derivatives of metformin were analyzed for serum amylase inhibitory activity using the Yukihoko Hara method. Three test tubes were labeled as blank (B), test (T), and control (C). Then, 2.5 mL of phosphate buffer (pH 6.8) was added to each test tube. Next, 1 mL of starch and 1 mL of 2 N sodium chloride solution were added to each test tube. The test tubes were incubated at 37 °C for 10 min. After incubation, 0.5 mL of derivatives was added to test tube T, followed by 0.2 mL of enzyme (α-amylase). All contents were mixed well, and then the tube was incubated at 37 °C for 10 min. In the control test tube, normal saline (2 N), starch solution (1 mL), and enzyme solution (0.2 mL) were added before incubating at 37 °C for 10 min. In the blank test tube, only 5.7 mL of distilled water was added. Dinitro-salicylic acid (0.2 mL) was added to all test tubes. The contents were mixed well, and the test tubes were kept in a boiling water bath for 15 min. The intensity of reddish orange was read at 540 nm. The percentage inhibitory action of serum amylase was calculated using the following formula:Percentage inhibition = OD of control − OD of test tube/OD of control × 100.
# [3] = 250 µg/mL, Table 5 (MCu series)
# [4] = 500 µg/mL, Table 5 (MCu series)
# [5] = 1000 µg/mL, Table 5 (MCu series)
# [6] = Table 5 (MCu series), read-out: IC50
# [7] = 250 µg/mL, Table 8 (MCu series)
# [8] = 500 µg/mL, Table 8 (MCu series)
# [9] = 1000 µg/mL, Table 8 (MCu series)
# [10] = Table 8 (MCu series), read-out: IC50
# [11] = 250 µg/mL, Table 6 (MZn series)
# [12] = 500 µg/mL, Table 6 (MZn series)
# [13] = 1000 µg/mL, Table 6 (MZn series)
# [14] = 250 µg/mL, Table 9 (MZn series)
# [15] = 500 µg/mL, Table 9 (MZn series)
# [16] = 1000 µg/mL, Table 9 (MZn series)
# [17] = Table 9 (MZn series), read-out: IC50
smiles,measurement,setting,value
C=NC(=N)NC(=N)N(C)C.C=NC(=N)NC(=N)N(C)C.O.O.O.O.O.O=S(=O)([O-])[O-].[Cu+2] [MCu4],% Inhibition,[1]; [3],18.64 ± 0.07%
same,% Inhibition,[1]; [4],31.28 ± 0.08%
same,% Inhibition,[1]; [5],51.20 ± 0.18%
same,IC50,[1]; [6],500 µM
same,% Inhibition,[2]; [7],19.48 ± 0.40%
same,% Inhibition,[2]; [8],31.46 ± 0.23%
same,% Inhibition,[2]; [9],48.32 ± 0.51%
same,IC50,[2]; [10],300 µM
CC(C)=NC(=N)NC(=N)N(C)C.CC(C)=NC(=N)NC(=N)N(C)C.O.O.O.O.O.O=S(=O)([O-])[O-].[Cu+2] [MCu5],% Inhibition,[1]; [3],21.73 ± 0.12%
same,% Inhibition,[1]; [4],38.21 ± 0.18%
same,% Inhibition,[1]; [5],56.45 ± 0.20%
same,IC50,[1]; [6],460 µM
same,% Inhibition,[2]; [7],12.46 ± 0.23%
same,% Inhibition,[2]; [8],38.44 ± 0.40%
same,% Inhibition,[2]; [9],61.38 ± 0.23%
same,IC50,[2]; [10],320 µM
CN(C)C(=N)NC(=N)N=C(c1ccccc1)c1ccccc1.CN(C)C(=N)NC(=N)N=C(c1ccccc1)c1ccccc1.O.O.O.O.O.O=S(=O)([O-])[O-].[Zn+2] [MZn7],% Inhibition,[1]; [11],33.67 ± 67%
same,% Inhibition,[1]; [12],37.61 ± 0.20%
same,% Inhibition,[1]; [13],42.54 ± 0.26%
same,% Inhibition,[2]; [14],24.32 ± 0.51%
same,% Inhibition,[2]; [15],44.52 ± 0.34%
same,% Inhibition,[2]; [16],73.43 ± 0.28%
same,IC50,[2]; [17],250 µM
CN(C)C(=N)NC(=N)N=Cc1ccccc1.CN(C)C(=N)NC(=N)N=Cc1ccccc1.O.O.O.O.O.O=S(=O)([O-])[O-].[Cu+2] [MCu1],IC50,[1],421.7 µg/mL
same,% Inhibition,[1]; [3],44.24 ± 0.10%
same,% Inhibition,[1]; [4],61.46 ± 0.31%
same,% Inhibition,[1]; [5],81.13 ± 0.08%
same,IC50,[1]; [6],600 µM
same,% Inhibition,[2]; [7],19.44 ± 0.46%
same,% Inhibition,[2]; [8],43.71 ± 0.17%
same,% Inhibition,[2]; [9],73.31 ± 0.51%
same,IC50,[2]; [10],990 µM
CN(C)C(=N)NC(=N)N=Cc1ccccc1O.CN(C)C(=N)NC(=N)N=Cc1ccccc1O.O.O.O.O.O.O=S(=O)([O-])[O-].[Zn+2] [MZn2],% Inhibition,[1]; [11],43.55 ± 0.20%
same,% Inhibition,[1]; [12],57.61 ± 0.15%
same,% Inhibition,[1]; [13],71.37 ± 0.30%
same,IC50,"[1]; Table 6 (MZn series), read-out: IC50",600 µM
same,IC50,[2],484.9 µg/mL
same,% Inhibition,[2]; [14],34.46 ± 0.23%
same,% Inhibition,[2]; [15],69.32 ± 0.46%
same,% Inhibition,[2]; [16],86.58 ± 0.40%
same,IC50,[2]; [17],670 µM
CC(=NC(=N)NC(=N)N(C)C)c1ccccc1.CC(=NC(=N)NC(=N)N(C)C)c1ccccc1.O.O.O.O.O.O=S(=O)([O-])[O-].[Zn+2] [MZn6],% Inhibition,[1]; [11],36.67 ± 0.26%
same,% Inhibition,[1]; [12],41.26 ± 0.32%
same,% Inhibition,[1]; [13],44.51 ± 0.19%
same,% Inhibition,[2]; [14],18.76 ± 0.17%
same,% Inhibition,[2]; [15],33.29 ± 0.46%
same,% Inhibition,[2]; [16],51.47 ± 0.28%
same,IC50,[2]; [17],540 µM
CN(C)C(=N)NC(=N)N=Cc1ccccc1O.CN(C)C(=N)NC(=N)N=Cc1ccccc1O.O.O.O.O.O.O=S(=O)([O-])[O-].[Cu+2] [MCu2],% Inhibition,[1]; [3],31.13 ± 0.04%
same,% Inhibition,[1]; [4],48.50 ± 0.22%
same,% Inhibition,[1]; [5],77.32 ± 0.17%
same,% Inhibition,[2]; [7],29.52 ± 0.28%
same,% Inhibition,[2]; [8],44.56 ± 0.34%
same,% Inhibition,[2]; [9],77.56 ± 0.34%
same,IC50,[2]; [10],790 µM
CN(C)C(=N)NC(=N)N=CC=Cc1ccccc1.CN(C)C(=N)NC(=N)N=CC=Cc1ccccc1.O.O.O.O.O.O=S(=O)([O-])[O-].[Cu+2] [MCu3],% Inhibition,[1]; [3],29.74 ± 0.08%
same,% Inhibition,[1]; [4],49.26 ± 0.17%
same,% Inhibition,[1]; [5],78.23 ± 0.17%
same,IC50,[1]; [6],570 µM
same,% Inhibition,[2]; [7],25.41 ± 0.23%
same,% Inhibition,[2]; [8],38.37 ± 0.40%
same,% Inhibition,[2]; [9],69.40 ± 0.23%
same,IC50,[2]; [10],790 µM
COc1cc(C=NC(=N)NC(=N)N(C)C)ccc1O.COc1cc(C=NC(=N)NC(=N)N(C)C)ccc1O.O.O.O.O.O.O=S(=O)([O-])[O-].[Cu+2] [MCu8],% Inhibition,[1]; [3],41.50 ± 0.26%
same,% Inhibition,[1]; [4],67.35 ± 35%
same,% Inhibition,[1]; [5],83.14 ± 0.09%
same,IC50,[1]; [6],720 µM
same,IC50,[2],712.6 µg/mL
same,% Inhibition,[2]; [7],42.68 ± 0.46%
same,% Inhibition,[2]; [8],61.35 ± 0.51%
same,% Inhibition,[2]; [9],84.35 ± 0.51%
same,IC50,[2]; [10],900 µM
